Test results reported in patent US20220363709A1, “ECTONU[…] METHODS OF USE THEREOF” (priority 2019, published 2022).
pIC50: −log10 of the molar value.

target: T1, recombinant CD73 (Homo sapiens, UniProt P21589); assay: Assay 1: Inhibition of the CD73 Enzyme In Vitro; assay type: biochemical; conditions: not given
T1 construct: purchased R&D Systems 5795-EN-010
T1 sequence (P21589 27-547 limits assumed): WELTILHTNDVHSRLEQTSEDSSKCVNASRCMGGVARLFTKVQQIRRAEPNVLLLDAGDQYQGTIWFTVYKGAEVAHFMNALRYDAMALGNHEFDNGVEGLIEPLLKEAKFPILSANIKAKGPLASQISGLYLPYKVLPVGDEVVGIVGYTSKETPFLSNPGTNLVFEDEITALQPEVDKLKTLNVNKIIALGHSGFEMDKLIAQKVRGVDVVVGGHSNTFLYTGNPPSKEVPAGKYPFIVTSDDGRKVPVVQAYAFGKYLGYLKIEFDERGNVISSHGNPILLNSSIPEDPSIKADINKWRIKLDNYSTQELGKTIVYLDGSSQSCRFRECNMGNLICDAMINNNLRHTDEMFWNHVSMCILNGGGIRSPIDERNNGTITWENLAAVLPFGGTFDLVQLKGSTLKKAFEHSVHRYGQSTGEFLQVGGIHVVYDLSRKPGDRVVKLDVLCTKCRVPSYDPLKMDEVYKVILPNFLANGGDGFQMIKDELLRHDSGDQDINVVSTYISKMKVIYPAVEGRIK
Method: Serial dilutions of test compounds were incubated with recombinant CD73 and AMP in reaction buffer (25 mM Tris HCl pH7.5, 5 mM MgCl2, 50 mM NaCl, 0.25 mM DTT, 0.005% Triton X-100). The final reaction volume was 25 μL and the final concentrations of recombinant CD73 and AMP were 0.5 nM and 50 μM, respectively. […] After 5 minutes at room temperature, absorbance at 630 nm was determined on a microplate spectrophotometer. The concentration of inorganic phosphate was determined using a phosphate standard curve.
ND indicates not determined.

pIC50	Structure (SMILES)
< 4.30	COC(=O)c1ccccc1-c1ccc(CC(OC[C@H]2O[C@@H](n3cnc4c(N)nc(Cl)nc43)[C@H](O)[C@@H]2O)(C(=O)O)c2ccccc2)cc1 (stereo partly drawn) [Example 46, 2-(((2R,3S,4R,5R)-5-(6-amino-2-chloro-9H-purin-9-yl)-3,4-dihydroxytetrahydrofuran-2-yl)methoxy)-3-(2′-(methoxycarbonyl)-[1,1′-biphenyl]-4-yl)-2-phenylpropanoic acid]

same assay, conditions: soluble recombinant CD73 0.5 nM, AMP 50 μM, 30 minutes at room temperature, Malachite Green, absorbance at 630 nm; read-out: Assay 1 CD73 IC50

Structure (SMILES)	pIC50
Nc1nc(Cl)nc2c1ncn2[C@@H]1O[C@H](CO[C@](Cc2ccc(C(=O)O)cc2)(C(=O)O)c2cscn2)[C@@H](O)[C@@H]1F (single isomer, unassigned) [Example 15]	6.53
Nc1nc(Cl)nc2c1ncn2[C@@H]1O[C@H](COC(Cc2ccccc2)(C(=O)O)c2cscn2)[C@@H](O)[C@H]1O (mixture of isomers) [Example 26, 2-(((2R,3S,4R,5R)-5-(6-amino-2-chloro-9H-purin-9-yl)-3,4-dihydroxytetrahydrofuran-2-yl)methoxy)-3-phenyl-2-(thiazol-4-yl)propanoic acid]	6.40
Nc1nc([C@](Cc2ccccc2)(OC[C@H]2O[C@@H](n3cnc4c(N)nc(Cl)nc43)[C@H](O)[C@@H]2O)C(=O)O)cs1 (single isomer, unassigned) [Example 30]	6.47
Cc1nc([C@@](Cc2ccc(-c3ccccc3)cc2)(OC[C@H]2O[C@@H](n3cnc4c(N)nc(Cl)nc43)[C@H](O)[C@@H]2O)C(=O)O)cs1 (single isomer, unassigned) [Example 29]	5.49
Nc1nc(Cl)nc2c1ncn2[C@@H]1O[C@H](CO[C@@](Cc2ccc(-c3ccc(C(=O)O)cc3)cc2)(C(=O)O)c2cscn2)[C@@H](O)[C@H]1O (single isomer, unassigned) [Example 3]	5.90
Nc1nc(Cl)nc2c1ncn2[C@@H]1O[C@H](CO[C@@](Cc2ccc(C(=O)O)cc2)(C(=O)O)c2cscn2)[C@@H](O)[C@@H]1F (single isomer, unassigned) [Example 16]	5.31
COc1ncccc1-c1ccc(C[C@@](OC[C@H]2O[C@@H](n3cnc4c(N)nc(Cl)nc43)[C@@H](F)[C@@H]2O)(C(=O)O)c2cscn2)cc1 (single isomer, unassigned) [Example 19]	6.77
Nc1nc(Cl)nc2c1ncn2[C@@H]1O[C@H](COC(Cc2cccc(C(=O)O)c2)(C(=O)O)c2cscn2)[C@@H](O)[C@@H]1F (mixture of isomers) [Example 17, 3-(2-(((2R,3R,4S,5R)-5-(6-amino-2-chloro-9H-purin-9-yl)-4-fluoro-3-hydroxytetrahydrofuran-2-yl)methoxy)-2-carboxy-2-(thiazol-4-yl)ethyl)benzoic acid]	6.13
CCN(CC)C(=O)c1ccccc1-c1ccc(CC(OC[C@H]2O[C@@H](n3cnc4c(N)nc(Cl)nc43)[C@H](O)[C@@H]2O)(C(=O)O)c2cscn2)cc1 (mixture of isomers) [Example 45, 2-(((2R,3S,4R,5R)-5-(6-amino-2-chloro-9H-purin-9-yl)-3,4-dihydroxytetrahydrofuran-2-yl)methoxy)-3-(2′-(diethylcarbamoyl)-[1,1′-biphenyl]-4-yl)-2-(thiazol-4-yl)propanoic acid]	6.08

Second part, the compound after the results:

pIC50	Structure (SMILES)
5.99	Nc1nc(Cl)nc2c1ncn2[C@@H]1O[C@H](CO[C@@](Cc2ccc(-c3ccccc3CC(=O)O)cc2)(C(=O)O)c2cscn2)[C@@H](O)[C@H]1O (single isomer, unassigned) [Example 7]
6.04	CS(=O)(=O)Nc1ccccc1-c1ccc(C[C@](OC[C@H]2O[C@@H](n3cnc4c(N)nc(Cl)nc43)[C@H](O)[C@@H]2O)(C(=O)O)c2cscn2)cc1 (single isomer, unassigned) [Example 42]
7.37	CS(=O)(=O)Nc1ccccc1-c1ccc(C[C@@](OC[C@H]2O[C@@H](n3cnc4c(N)nc(Cl)nc43)[C@H](O)[C@@H]2O)(C(=O)O)c2cscn2)cc1 (single isomer, unassigned) [Example 41]
6.44	Nc1nc(Cl)nc2c1ncn2[C@@H]1O[C@H](CO[C@@](Cc2ccc(-c3ccccc3OC(F)(F)F)cc2)(C(=O)O)c2cscn2)[C@@H](O)[C@H]1O (single isomer, unassigned) [Example 44]
